Earlier results, collected in patent publication US7833744B2, “Methods to evaluate cytochrome P450 2C19 isoenzyme activity using a breath test” (Cambridge Isotope Laboratories, Inc., priority 2006, dated 2010).

Experiments:
platelets = settings: healthy volunteers who carry CYP2C19*2 compared to CYP2C19*1*1 genotype
CYP2C19 [1] = target: CYP2C19 (Homo sapiens, UniProt P33261); settings: in EMs
CYP2C19 [2] = settings: PMs vs EMs

Sequence of CYP2C19 (Homo sapiens, UniProt P33261) (P33261 whole entry): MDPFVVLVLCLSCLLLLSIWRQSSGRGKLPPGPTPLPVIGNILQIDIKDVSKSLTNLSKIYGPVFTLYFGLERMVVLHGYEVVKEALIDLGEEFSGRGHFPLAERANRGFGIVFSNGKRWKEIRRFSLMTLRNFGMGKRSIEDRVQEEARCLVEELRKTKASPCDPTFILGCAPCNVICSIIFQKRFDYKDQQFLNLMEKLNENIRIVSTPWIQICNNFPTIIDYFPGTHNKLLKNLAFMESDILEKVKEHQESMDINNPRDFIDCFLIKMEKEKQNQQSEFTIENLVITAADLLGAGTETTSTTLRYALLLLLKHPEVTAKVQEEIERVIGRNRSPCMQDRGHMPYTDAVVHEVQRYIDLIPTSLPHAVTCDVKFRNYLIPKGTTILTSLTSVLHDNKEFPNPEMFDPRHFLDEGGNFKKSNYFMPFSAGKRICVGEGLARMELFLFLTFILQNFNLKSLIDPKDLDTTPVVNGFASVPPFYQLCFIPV

share of dose cleared by CYP2C19 (CYP2C19 [1])	exposure in PMs relative to EMs of CYP2C19 (CYP2C19 [2])	SMILES	anti-platelet effect (platelets)
–	–	COC(=O)[C@H](c1ccccc1Cl)N1CCc2sccc2C1 [clopidogrel]	no anti-platelet effect
approximately 80%	about six-fold higher	Cc1c(OCC(F)(F)F)ccnc1C[S+]([O-])c1nc2ccccc2[nH]1 (stereo not shown) [lansoprazole]	–
approximately 80%	about six-fold higher	COc1ccc2[nH]c([S+]([O-])Cc3ncc(C)c(OC)c3C)nc2c1 (stereo not shown) [omeprazole]	–
approximately 80%	about six-fold higher	COc1ccnc(C[S+]([O-])c2nc3ccc(OC(F)F)cc3[nH]2)c1OC (stereo not shown) [pantoprazole]	–
